Activity calls are given as the source filed them. No cut-off for these calls is given here.
What was measured:
SARS-CoV-2 [1] = test: microbe, parasite or virus in culture; conditions: Severe acute respiratory syndrome coronavirus 2, JPN/TY/WK-251, Vero C1008, 72 h
SARS-CoV-2 [2] = format: functional, Severe acute respiratory syndrome coronavirus 2, JPN/TY/WK-251, Vero E6; conditions: dose 1-100 µM; time 72 hrs; at 1 to 100 µM
SARS-CoV-2 [3] = format: functional, organism-based; conditions: Severe acute respiratory syndrome coronavirus 2; JPN/TY/WK-251; Vero E6; dose 10.0 µM, time 3.0 day
SARS-CoV-2 [4] = format: functional
[5] = Inhibition of SARS-CoV-2 3CL protease using HiyteFluor-488ESATL-QSGLRKAK-(QXL)-NH2 fluorogenic peptide as substrate preincubated for 15 mins followed by substrate addition and measured after 30 mins by FRET assay; parameters: species or system Severe acute respiratory syndrome coronavirus 2
Vero C1008 = test: Cytotoxicity against African green monkey Vero E6 cells incubated for 3 days; format: cell-based; conditions: chlorocebus sabaeus, vero c1008, 72 h; time 3 day
[6] = Binding affinity to SARS-CoV-2 3CL protease; parameters: species or system Severe acute respiratory syndrome coronavirus 2

Compound	EC50 (SARS-CoV-2 [1]) [µM]	further results
O=C(Oc1cncc(Cl)c1)c1ccc2[nH]ccc2c1	43.7	
C=CCc1cn(CC=C)c2cccc(C(=O)Oc3cncc(Cl)c3)c12	11.5	
O=C(Oc1cncc(Cl)c1)c1cc(F)cc2[nH]ccc12	14	
Cc1ncc(OC(=O)c2cccc3[nH]ccc23)cc1Cl	30	
O=C(Oc1cncc(Cl)c1)c1cccc2c1OCCN2	> 100	
Cc1cc(C(=O)Oc2cncc(Cl)c2)c2cc[nH]c2c1	3.1	
Cc1ccc2[nH]ccc2c1C(=O)Oc1cncc(Cl)c1	> 100	
O=C(Nc1cncc(Cl)c1)c1cccc2[nH]ccc12	> 100	
CCC(CC)COC(=O)[C@H](C)N[P@](=O)(OC[C@H]1O[C@@](C#N)(c2ccc3c(N)ncnn23)[C@H](O)[C@@H]1O)Oc1ccccc1		Activity (SARS-CoV-2 [2]): 100%; Activity (SARS-CoV-2 [3]): Active; Activity (SARS-CoV-2 [4]; Severe acute respiratory syndrome coronavirus 2, JPN/TY/WK-251, Vero E6, dose 100.0 µM, time 3.0 day): Active
Cc1ncc(OC(=O)c2cccc3[nH]cnc23)cc1Cl	57	
Cc1ncc(Cl)cc1OC(=O)c1cccc2[nH]ccc12	> 100	IC50 [5]: > 100 µM
O=C(Oc1cncc(Cl)c1)c1ccc2c(ccn2S(=O)(=O)c2cccc([N+](=O)[O-])c2)c1	69.8	
O=C(Oc1cncc(Cl)c1)c1cccc2c1CCN2	15	IC50 [5]: 0.32 µM; Activity (SARS-CoV-2 [3]): Active; Activity (SARS-CoV-2 [4]; dose 100 µM, time 3 day): 100%
O=C(Oc1cncc(Cl)c1)c1cccc2ncoc12	> 100	
Cc1c[nH]c2cccc(C(=O)Oc3cncc(Cl)c3)c12	56.7	
Cc1nc2c(C(=O)Oc3cncc(Cl)c3)cccc2[nH]1	57.1	
O=C(Nc1cccc(Cl)c1)c1cccc2[nH]ccc12	> 100	IC50 [5]: 100 µM
O=C(Oc1cncc(Cl)c1)c1cccc2[nH]ccc12		CC50 (Vero C1008): > 100 µM; Activity (SARS-CoV-2 [2]): 100%; Activity (SARS-CoV-2 [3]): Active; Activity (SARS-CoV-2 [4]; dose 100 µM, time 3 day): 100%
Cc1c(Cl)cncc1OC(=O)c1cccc2[nH]ccc12	19.3	
COc1cccc2[nH]c(C(=O)Oc3cncc(Cl)c3)cc12	8.1	
O=C(Oc1cncc(Cl)c1)c1cccc2[nH]cnc12	> 100	
C=CCn1ccc2c(C(=O)Oc3cncc(Cl)c3)cccc21	15	
COc1cccc2[nH]c(C(=O)N[C@@H](CC(C)C)C(=O)N[C@@H](C[C@@H]3CCNC3=O)C(=O)c3nc4ccccc4s3)cc12		Ki [6]: 0.0176 µM

From ChEMBL document CHEMBL4831532
